Laboratory results: ChEMBL document CHEMBL4831557, “Parthenolide Derivatives as PKM2 Activators Showing Potential in Colorectal Cancer” (J Med Chem, 2021)
Active and inactive are the calls of the source. No cut-off for these calls is given here.

Tests used:
[1] = Selectivity index, ratio of IC50 for human NCM460 cells to IC50 for human HT-29 cells; type: toxicity; conditions: NCM460 cells versus HT-29 cells, read-out: Ratio IC50
HT-29 [2] = assay: Induction of apoptosis in human HT-29 cells assessed as decrease in caspase-3 expression at 0.45 to 1.8 uM after 48 hrs by Western blotting analysis; type: functional, cell-based; conditions: dose 0.45-1.8 µM
U2OS = assay: Cytotoxicity against human U2OS cells assessed as reduction in cell viability incubated for 48 hrs by MTT assay; type: functional, cell-based
Pyruvate kinase PKM [3] = target: T1, Pyruvate kinase PKM (Homo sapiens, UniProt P14618); assay: Inhibition of PKM2 dimer nuclear translocation in human HT-29 cells by immunostaining based analysis; type: cell-based
Pyruvate kinase PKM [4] = target: T1, Pyruvate kinase PKM; assay: Activation of human PKM2-C424A expressed in Escherichia coli BL21 (DE3) assessed as increase in PKM2-C424A tetramer formation by chemical cross-linking assay
Pyruvate kinase PKM [5] = target: T1, Pyruvate kinase PKM; assay: Activation of recombinant human PKM2 at 10 uM incubated 30 mins by fluorescence microplate reader analysis; conditions: filed as activator
Pyruvate kinase PKM [6] = target: T1, Pyruvate kinase PKM; assay: Activation of PKM2 in human HT-29 cells assessed as increase in PKM2 tetramer formation at 0.6 to 1.2 uM after 48 hrs by Western blot analysis; type: cell-based; conditions: filed as activator, dose 0.6-1.2 µM
Pyruvate kinase PKM [7] = target: T1, Pyruvate kinase PKM; assay: Activation of PKM2 in human HT-29 cells assessed as decrease in extracellular acidification rate; type: cell-based; conditions: filed as activator
Pyruvate kinase PKM [8] = target: T1, Pyruvate kinase PKM; assay: Inhibition of PKM2/STAT3 in human HT-29 cells assessed as reduction in C-myc protein expression at 0.45 to 1.8 uM incubated for 48 hrs by Western blot analysis; type: cell-based; conditions: dose 0.45-1.8 µM
HepG2 = assay: Cytotoxicity against human HepG2 cells assessed as reduction in cell viability incubated for 48 hrs by MTT assay; type: functional, cell-based; conditions: HepG2, 48 h
HT-29 [9] = assay: Induction of intracellular ROS production in human HT-29 cells at 0.45 to 1.8 uM incubated for 48 hrs by DCFH-DA staining based flow cytometry analysis; type: functional, cell-based; conditions: dose 0.45-1.8 µM
HT-29 [10] = assay: Antitumor activity against human HT-29 cells xenografted in BALB/c mouse assessed as reduction in tumor weight at 15 to 30 mg/kg, ip administered once every two days for 2 weeks by vernier caliper method; type: functional, organism-based; conditions: dose 15-30 mg/kg
HT-29 [11] = assay: Effect on total PKM2 protein expression in cytoplasm of human HT-29 cells at 0.45 to 1.8 uM after 48 hrs by Western blot analysis; type: functional, cell-based; conditions: dose 0.45-1.8 µM
MDA-MB-231 = assay: Cytotoxicity against human MDA-MB-231 cells assessed as reduction in cell viability incubated for 48 hrs by MTT assay; type: functional, cell-based; conditions: MDA-MB-231, 48 h
HT-29 [12] = assay: Antitumor activity against human HT-29 cells xenografted in BALB/c mouse assessed as reduction in tumor growth at 15 to 30 mg/kg, ip administered once every 2 days for 2 weeks by vernier caliper method; type: functional, organism-based; conditions: dose 15-30 mg/kg
HT-29 [13] = assay: Effect on mitochondrial membrane potential in human HT-29 cells at 0.45 to 1.8 uM measured after 48 hrs by JC-1 staining based assay; type: functional, cell-based; conditions: dose 0.45-1.8 µM
SW480 [14] = assay: Cytotoxicity against human SW480 cells assessed as reduction in cell viability incubated for 48 hrs by MTT assay; type: functional, cell-based; conditions: SW480, 48 h
HCT-116 = assay: Cytotoxicity against human HCT-116 cells assessed as reduction in cell viability incubated for 48 hrs by MTT assay; type: functional, cell-based; conditions: HCT-116, 48 h
HT-29 [15] = assay: Induction of apoptosis in PKM2 knock down human HT-29 cells at 0.45 to 1.8 uM; type: functional, cell-based; conditions: dose 0.45-1.8 µM
SW480 [16] = assay: Antimigratory activity against human SW480 cells; type: functional, cell-based
HT-29 [17] = assay: Induction of apoptosis in human HT-29 cells assessed as increase in cleaved caspase-3 expression at 0.45 to 1.8 uM after 48 hrs by Western blotting analysis; type: functional, cell-based; conditions: dose 0.45-1.8 µM
HT-29 [18] = assay: Induction of apoptosis in human HT-29 cells after 48 hrs by Annexin V-PE and 7-AAD staining based flow cytometric analysis; type: functional, cell-based; conditions: dose 0.45-1.8 µM
SW480 [19] = assay: Effect on mitochondrial membrane potential in human SW480 cells at 0.2 to 0.6 uM measured after 48 hrs by JC-1 staining based assay; type: functional, cell-based; conditions: dose 0.2-0.6 µM
HT-29 [20] = assay: Cytotoxicity against human HT-29 cells assessed as reduction in cell viability incubated for 48 hrs by MTT assay; type: functional, cell-based; conditions: HT-29, 48 h
Pyruvate kinase PKM [21] = target: T1, Pyruvate kinase PKM; assay: Inhibition of PKM2/STAT3 in human HT-29 cells assessed as reduction in bcl2 protein expression at 0.45 to 1.8 uM incubated for 48 hrs by Western blot analysis; type: cell-based; conditions: dose 0.45-1.8 µM
HT-29 [22] = assay: Induction of cell cycle arrest in human HT-29 cells assessed as accumulation of cells at G2/M phase after 48 hrs by PI staining based flow cytometric analysis; type: functional; conditions: dose 0.45-1.8 µM
HT-29 [23] = assay: Effect on total PKM2 protein expression in nucleus of human HT-29 cells at 0.45 to 1.8 uM after 48 hrs by Western blot analysis; type: functional, cell-based; conditions: dose 0.45-1.8 µM
Pyruvate kinase PKM [24] = target: T1, Pyruvate kinase PKM; assay: Activation of PKM2 in human HT-29 cells assessed as increase in PKM2 tetramer formation by dynamic laser light scattering analysis; type: cell-based; conditions: filed as activator
Pyruvate kinase PKM [25] = target: T1, Pyruvate kinase PKM; assay: Inhibition of PKM2/STAT3 in human HT-29 cells assessed as increase in bax protein expression at 0.45 to 1.8 uM incubated for 48 hrs by Western blot analysis; type: cell-based; conditions: dose 0.45-1.8 µM
HT-29 [26] = assay: Inhibition of epithelial-mesenchymal transition in human HT-29 cells assessed as change in E-cadherin expression; type: functional, cell-based
Pyruvate kinase PKM [27] = target: T1, Pyruvate kinase PKM; assay: Activation of PKM2 in human HT-29 cells assessed as increase in cell basal respiration; type: cell-based; conditions: filed as activator
SW480 [28] = assay: Induction of apoptosis in human SW480 cells after 48 hrs by Annexin V-PE and 7-AAD staining based flow cytometric analysis; type: functional, cell-based; conditions: dose 0.2-0.8 µM
[29] = Selectivity index, ratio of IC50 for human NCM460 cells to IC50 for human SW480 cells
HT-29 [30] = assay: Antiproliferative activity against human HT-29 cells at 0.25 to 1 uM measured after 48 hrs by EdU staining based confocal microscopic analysis; type: functional, cell-based; conditions: dose 0.25-1 µM
[31] = Toxicity in BALB/c mouse xenografted with human HT-29 cells assessed as decrease in body weight at 30 mg/kg, ip administered once every 2 days for 2 weeks and monitered every 2 days; type: organism-based; conditions: in vivo, 336 h
SW480 [32] = assay: Induction of cell cycle arrest in human […] cells assessed as accumulation of cells at G2/M phase after 48 hrs by PI staining based flow cytometric analysis; type: functional; conditions: dose 0.2-0.6 µM
HT-29 [33] = assay: Induction of apoptosis in human HT-29 cells assessed as decrease in PARP expression at 0.45 to 1.8 uM after 48 hrs by Western blotting analysis; type: functional, cell-based; conditions: dose 0.45-1.8 µM
HT-29 [34] = assay: Inhibition of epithelial-mesenchymal transition in human HT-29 cells assessed as change in Snail-2 expression; type: functional, cell-based
HT-29 [35] = assay: Antimigratory activity against human HT-29 cells; type: functional, cell-based
Pyruvate kinase PKM [36] = target: Pyruvate kinase PKM (Homo sapiens, UniProt P14618, C424A); assay: Activation of human PKM2-C424A expressed in Escherichia coli BL21 (DE3)
Pyruvate kinase PKM [37] = target: T1, Pyruvate kinase PKM; assay: Inhibition of PKM2/STAT3 in human HT-29 cells assessed as reduction in bcl-xl protein expression at 0.45 to 1.8 uM incubated for 48 hrs by Western blot analysis; type: cell-based; conditions: dose 0.45-1.8 µM

T1 sequence (P14618 2-531 limits assumed): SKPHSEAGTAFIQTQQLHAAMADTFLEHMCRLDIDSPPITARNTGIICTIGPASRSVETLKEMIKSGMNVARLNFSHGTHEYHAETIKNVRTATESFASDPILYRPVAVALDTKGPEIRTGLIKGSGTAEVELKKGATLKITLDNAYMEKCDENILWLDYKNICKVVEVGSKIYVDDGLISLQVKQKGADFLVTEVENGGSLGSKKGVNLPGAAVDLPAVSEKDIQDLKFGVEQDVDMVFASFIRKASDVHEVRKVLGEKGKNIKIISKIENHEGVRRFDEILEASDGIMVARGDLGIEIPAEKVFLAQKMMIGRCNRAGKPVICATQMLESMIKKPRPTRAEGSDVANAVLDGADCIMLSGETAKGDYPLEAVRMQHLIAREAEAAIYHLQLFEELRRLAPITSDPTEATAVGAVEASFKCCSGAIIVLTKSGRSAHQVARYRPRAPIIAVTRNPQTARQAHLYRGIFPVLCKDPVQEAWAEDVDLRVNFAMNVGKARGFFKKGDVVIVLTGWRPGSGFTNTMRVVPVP
Pyruvate kinase PKM (Homo sapiens, UniProt P14618, C424A), sequence (P14618 2-531 C424A limits assumed): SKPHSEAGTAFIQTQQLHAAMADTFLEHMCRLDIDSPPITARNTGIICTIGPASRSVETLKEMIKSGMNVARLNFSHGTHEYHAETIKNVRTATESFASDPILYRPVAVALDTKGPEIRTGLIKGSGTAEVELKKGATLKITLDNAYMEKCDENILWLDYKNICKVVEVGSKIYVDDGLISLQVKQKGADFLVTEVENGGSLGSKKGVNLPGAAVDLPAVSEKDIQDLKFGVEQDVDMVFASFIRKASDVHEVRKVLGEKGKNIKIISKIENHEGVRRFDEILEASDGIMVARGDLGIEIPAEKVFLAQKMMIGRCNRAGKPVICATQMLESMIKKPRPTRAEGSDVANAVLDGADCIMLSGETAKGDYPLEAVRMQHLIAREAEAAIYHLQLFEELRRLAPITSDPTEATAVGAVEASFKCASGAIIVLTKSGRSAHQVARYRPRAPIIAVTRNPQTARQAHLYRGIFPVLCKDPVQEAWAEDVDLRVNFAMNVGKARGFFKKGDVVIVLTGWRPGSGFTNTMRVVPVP

inhibition (Pyruvate kinase PKM [3]): Active
Activity (Pyruvate kinase PKM [4]): inactive
Activity (Pyruvate kinase PKM [5]): Active
Activity (Pyruvate kinase PKM [6]): Active
Activity (Pyruvate kinase PKM [7]): Active
inhibition (Pyruvate kinase PKM [8]): Active
inhibition (Pyruvate kinase PKM [21]): Active
Activity (Pyruvate kinase PKM [24]): Active
inhibition (Pyruvate kinase PKM [25]): Active
Activity (Pyruvate kinase PKM [27]): Active
AC50 (Pyruvate kinase PKM [36]): 0.1 µM
inhibition (Pyruvate kinase PKM [37]): Active
SMILES: C=C1C(=O)O[C@H]2[C@H]1CC/C(COC(=O)c1ccc3nccc(Br)c3c1)=C/CC[C@@]1(C)O[C@@H]21
selectivity ratio [1]: 3.06
Activity (HT-29 [2]): Active
IC50 (U2OS): 1.79 µM
IC50 (HepG2): 3.9 µM
Activity (HT-29 [9]): Active
Activity (HT-29 [10]): Active
Activity (HT-29 [11]): inactive
IC50 (MDA-MB-231): 1.03 µM
Activity (HT-29 [12]): Active
Activity (HT-29 [13]): Active
IC50 (SW480 [14]): 0.22 µM
IC50 (HCT-116): 1 µM
Activity (HT-29 [15]): inactive
Activity (SW480 [16]): Active
Activity (HT-29 [17]): Active
Activity (HT-29 [18]): Dose-Dependent Effect
Activity (SW480 [19]): Active
IC50 (HT-29 [20]): 0.66 µM
Activity (HT-29 [22]): Dose-Dependent Effect
Activity (HT-29 [23]): Active
inhibition (HT-29 [26]): inactive
Activity (SW480 [28]): Dose-Dependent Effect
Ratio IC50 [29]: 9.18
Activity (HT-29 [30]): Active
Activity [31]: Non-Toxic
Activity (SW480 [32]): Dose-Dependent Effect
Activity (HT-29 [33]): Active
inhibition (HT-29 [34]): inactive
Activity (HT-29 [35]): Active
